Experimental data taken from patent US8263538B2, “Personal wash cleanser with mild surfactant systems comprising defined alkanoyl compounds and defined fatty acyl isethionate surfactant product” (priority 2010, dated 2012).

Test system: intrascapular area of the back
Assay: 14-day cumulative irritation Patch Test (occlusive patch, cleansers diluted to 25% w/w)
Settings: for Patch test Total irritation score: higher score = more irritating
Protocol: This was randomized, double-blind study. A sufficient number of subjects were recruited to ensure that 25 subjects completed the study. The 14-day cumulative irritation test was conducted as follows. Patching occurred for 14 consecutive days, except on Sundays. Patches applied on Saturday were left in place until Monday, when freshly prepared patches were applied. The designated patch test sites were approximately 2 cm×2 cm on the intrascapular area of the back. Approximately 0.2 mL of the test product was placed onto a Parke-Davis Readi-Bandage® occlusive patch that measured 2 cm×2 cm. Solutions were made by diluting the cleansers to 25% w/w in distilled water. The patch was then applied to the designated test site. The patches were secured with hypoallergenic tape (Scanpor {Allerderm} as needed). A 0.5% sodium dodecyl sulfate (SDS) solution was used as the control in the test.
Each day following application, the patches were removed, the sites evaluated and identical patches reapplied to the same test sites. All evaluations were made using the following 6-point scoring system: • 0=No evidence of any effect • +=Barely perceptible (minimal, faint, uniform or spotty erythema) numerically equivalent to 0.5 • 1=Mild (pink, uniform erythema covering most of the contact site) • 2=Moderate (pink-red, erythema uniform in the entire contact site) • 3=Marked (bright red erythema with/without petechiae or papules) • 4=Severe (deep red erythema with/without vesiculation or weeping)
If a dermal reaction of 3 or 4 occur with any of the test articles at any point during the study, further patch testing on that subject was terminated at the test site involved, and the attained score was assigned to that site for the subsequent scheduled test days.
Cumulative irritation scores, which were the sum of the numerical irritation grades assigned daily during the 14-day test period, were calculated at the end of the study to compare mildness of the test products. […] The data were statistically analyzed using Tukey-Kramer Comparison, and statistical significance was determined at the 95% confidence level.

[1] = first series of Table 1 (0.5% SDS control = 783)
[2] = second series of Table 1 (0.5% SDS control = 912)

## CCCCCCCCCCCCOS(=O)(=O)[O-].[Na+] [0.5% SDS Solution, sodium dodecyl sulfate]
[1]
  Total irritation score compared to 0.5% SDS solution: 100%
  Patch test Total irritation score: 783
[2]
  Total irritation score compared to 0.5% SDS solution: 100%
  Patch test Total irritation score: 912
